# Patent US11026989B2, “Composition for treating erectile dysfunction by Orchis anatolica extract” (Jordan University of Science and Technology, priority 2016, dated 2021)
# Tested on: penile tissue (corpus cavernosum strips)
# Test: In vitro relaxation of penile tissue strips in physiological organ bath after induced contraction
# Design: species or system New Zealand rabbit and albino rats
# Description: A water-jacketed physiological organ bath provides a stable and adjustable way of organ stability and temperature control. Substrates and other nutrients that are required to sustain tissue function were provided via a physiological solution (e.g., Krebs solution). This will allowed the study of evoked tissue responses to pharmacological agents and/or electrical stimulation.
# Penile tissues from a mature New Zealand rabbit (e.g., 3-3.5 kg) and albino rats (e.g., 300-350 g) were dissected out and cleaned of the outer adherent connective tissue, and the two corpora cavernosa integral tissues were obtained. Each corpus cavernosum was cut lengthwise into 4 pieces measuring about 2 mm thick and 10-12 mm long out of which a 7-8 mm long piece was taken from the middle part of each strip by removing the two unwanted edges of these strips. The strips were kept in a well oxygenated Krebs solution, pre-cooled to 4° C., and placed in a refrigerator until the initiation of the experiment.
# Each erectile tissue (“ET”) was mounted by clipping both of its ends within the bath. An ET strip was hooked to one clip end, which was tied to a metal wire (e.g., mounting hook), which was fixed to a bottom of a water-jacketed chamber. The top end of the strip was clipped to a cotton thread and connected to a lever (e.g., arm), which was connected to a Harvard isotonic transducer. The former was connected to a Harvard Universal Oscillograph for recording the force of contraction to an isotonic transducer. The tissue strip was stretched against a fixed caliber weight of 2 gm attached to the lever of the isotonic transducer. The free movable lever end was horizontally adjusted receptive to any movement according to the contraction and relaxation of the ET within the path when stimulated. Before each experiment, the transducer was calibrated two times against this caliber weight. The bath into which the tissue was mounted contained 25 ml of oxygenated Krebs solution with continuous oxygenation (gas mixture of 95% O2 and 5% CO2 and at 37° C.) and left for 60 minutes before starting the experiment.
# Certain specifications for collection of Orchis anatolica plants were adopted so that the intact roots together with the potato-shaped bulb parts were collected and preserved intact. Bulbs were detached from roots and left to dry at air temperature, and then separated into two categories: a large rounded sized bulb resembling the small sized potato (male bulb) and an elongated small sized bulb (female or feeding bulb). The round potato shaped bulb was chopped and grinded using an electrical grinder until a powder was obtained. Each 500 g of dried and grinded orchis roots was then refluxed in (2 L) 70% ethanol at 50° C. for 36 hours in a continuous extraction (soxhlet) apparatus. Ethanol extract was filtered and concentrated under reduced pressure at 50° C. using a rotary evaporator. Red Korean Panax Ginseng was obtained from a South Korea market as a concentrated powder vacuumed and sealed in metal container packages of 50 g (commercially obtained from KOREAEXPORT CO LTD). Powder was dissolved well in distilled water from which different concentrations were used. Different doses of both Orchis anatolica extract and Red Korean Panax Ginseng were used to obtain and determine the maximum effect of ET response.
# A 1 liter Krebs stock solution was prepared the day before the experiment containing the following chemicals: NaCl (125 mM), NaHCO3 (20 mM), KCl (4 mM), NaH2PO4 (1.8 mM), MgSO4 (1.8 mM), CaCl2 (1.8 mM), glucose (10 mM), and HEPES buffer (10 mM) (see Table 1). For a final 1 liter Krebs solution, 725 ml ringer and […] Deionized water were added. The solution pH was set to 7.4 after gassing with 95% O2/5% CO2 for 30 minutes before it was used. Krebs solutions were freshly prepared on each experimental day from the stock solutions stored in the refrigerator. […]
SMILES,"Time dependent penile tissue contraction (−) and relaxation (+) response to treatment (5 minutes, 0.0509 gm stock solution) [%^]","Time dependent penile tissue contraction (−) and relaxation (+) response to treatment (10 minutes, 0.0509 gm stock solution) [%^]","Time dependent penile tissue contraction (−) and relaxation (+) response to treatment (15 minutes, 0.0509 gm stock solution) [%^]","Time dependent penile tissue contraction (−) and relaxation (+) response to treatment (20 minutes, 0.0509 gm stock solution) [%]","Time dependent penile tissue contraction (−) and relaxation (+) response to treatment (25 minutes, 0.0509 gm stock solution) [%]","Time dependent penile tissue contraction (−) and relaxation (+) response to treatment (5 minutes, 0.002 g/50 ml Krebs, after phenylephrine contraction) [%]","Time dependent penile tissue contraction (−) and relaxation (+) response to treatment (15 minutes, 0.002 g/50 ml Krebs, after phenylephrine contraction) [%]","Time dependent penile tissue contraction (−) and relaxation (+) response to treatment (25 minutes, 0.002 g/50 ml Krebs, after phenylephrine contraction) [%]"
CNC[C@H](O)c1cccc(O)c1 [L-Phenylephrine],−6.8,−8.2,−9.5,−10,−10,,,
CCCc1nn(C)c2c(=O)[nH]c(-c3cc(S(=O)(=O)N4CCN(C)CC4)ccc3OCC)nc12 [Sildenafil],,,,,,11,12,24
